{"source": "patent EP3463364B1", "about": "“PYRAZINE DERIVATIVES FOR USE IN THE TREATMENT OF DISEASES ASSOCIATED WITH CELL CYCLE DYSREGULATION” (University of Patras, priority 2016, dated 2017)", "target": "T1, Geminin-miniCdt1 protein interaction (Homo sapiens, UniProt O75496+Q9H211)", "T1 construct": "corresponds to the amino acid region 158-396 of the human Cdtl protein; Concentrations series of the full-length Geminin and the synthetic chemical compound were simultaneously injected", "T1 sequence (Q9H211 158-396)": "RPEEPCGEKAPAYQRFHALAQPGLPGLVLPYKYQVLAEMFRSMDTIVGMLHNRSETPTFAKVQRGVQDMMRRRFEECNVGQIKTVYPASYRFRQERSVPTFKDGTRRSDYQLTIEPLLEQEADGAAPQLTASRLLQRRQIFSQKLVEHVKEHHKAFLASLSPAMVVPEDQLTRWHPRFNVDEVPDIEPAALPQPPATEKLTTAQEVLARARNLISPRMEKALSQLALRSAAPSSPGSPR", "T1 sequence (O75496 1-209)": "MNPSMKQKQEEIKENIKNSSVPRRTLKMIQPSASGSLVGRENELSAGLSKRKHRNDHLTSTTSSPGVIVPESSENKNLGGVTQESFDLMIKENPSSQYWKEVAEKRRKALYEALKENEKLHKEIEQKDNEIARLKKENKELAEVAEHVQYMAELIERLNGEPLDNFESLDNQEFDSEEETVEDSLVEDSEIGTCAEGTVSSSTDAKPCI", "experiment": "Surface plasmon resonance (SPR): inhibition of Geminin binding to immobilized miniCdt1", "protocol": "Surface plasmon resonance analysis was performed in order to determine in a quantitative manner the ability of the synthetic compound AF-615/30368009 (compound number 1 in Tables A and B, and Fig. 1) to inhibit the binding of Geminin to the protein miniCdt1 (which corresponds to the amino acid region 158-396 of the human Cdtl protein), by calculating the inhibition constant (KI).\nSurface plasmon resonance spectroscopy (SPR) was performed at 25°C, using a Biosensor Biacore instrument (Biacore T100). About 6,000 RU of miniCdt1 protein were immobilized on a CMS Chip (Biacore) at pH 5.5, using amino coupling of Lysine residues. Concentrations series of the full-length Geminin and the synthetic chemical compound were simultaneously injected across the chip in a buffer containing 20 mM Hepes pH 7.5, 200 mM NaCl, 0.01% Tween 20 at a flow rate of 30µl/min. The concentrations used were 12, 36, 107, 322, 966nM for Geminin and 10 µM, 100µM, 1000µM for the compound. The injection of samples was carried out in the presence of 20% DMSO, to ensure high solubility.\nIn the graphs of Fig. 2, the x axis represents the different concentrations of Geminin (nM), while the y-axis the binding levels in RU (Response Units). […] The results in Fig. 2 indicate the specificity of the in vitro inhibitory effect of the synthetic chemical compound AF-615/30368009 on the Geminin-miniCdt1 protein interaction.", "data": [{"smiles": "O=C(NNC(=S)N1CCOCC1)c1cnccn1", "note": "[AF-615/30368009, N'-(morpholine-4-carbothioyl)pyrazine-2-carbohydrazide]", "values": [{"measurement": "Ki", "setting": "SPR at 25°C, Geminin 12-966nM, compound 10-1000µM, 20% DMSO, estimated value, read-out: inhibition constant (KI)", "value": "750 ± 190", "unit": "µM"}, {"measurement": "inhibition of Geminin binding to miniCdt1", "setting": "compound at 1000 µM, SPR binding curves (Fig. 2)", "value": "exhibits inhibition of Geminin binding to miniCdt1"}]}]}
